Common to all, as to assay: AK assay 384-well format, Prestwick library screening
Experiment [1] relates to S. aureus strain USA300-0114. The format is cell-based, Staphylococcus aureus. The conditions noted are these: 50 μM final drug concentration; for fold induction at 50 µM: Staphylococcus aureus, USA300, 3 h.
The test system of experiment [2] is E. coli. It counts as cell-based, Escherichia coli. The conditions noted are these: 50 μM final drug concentration; for fold induction at 50 µM: Escherichia coli, 3 h.
The subject of experiment [3] is E. cloacae. It counts as cell-based, Enterobacter cloacae. The conditions noted are these: 50 μM final drug concentration; for fold induction at 50 µM: Enterobacter cloacae, 3 h.
Experiment [4] relates to P. aeruginosa. It counts as cell-based, Pseudomonas aeruginosa. The note with it: 50 μM final drug concentration; for fold induction at 50 µM: Pseudomonas aeruginosa, 3 h.
The subject of experiment [5] is K. pneumoniae. The format is cell-based, Klebsiella pneumoniae. The conditions noted are these: 50 μM final drug concentration; for fold induction at 50 µM: Klebsiella pneumoniae, 3 h.
The subject of experiment [6] is A. baumannii strain 98-37-09. It counts as cell-based, Acinetobacter baumannii. The note with it: 50 μM final drug concentration; for fold induction at 50 µM: Acinetobacter baumannii, 983709, 3 h.
The test system of experiment [7] is E. faecium. The format is cell-based, Enterococcus faecium. The note with it: 50 μM final drug concentration; for fold induction at 50 µM: Enterococcus faecium, 3 h.
[8] abbreviates: planktonic, cutoff for positive-scoring molecules 3-fold increase, read-out: AK-based Prestwick Library Screening Results, S. aureus (fold increase in extracellular AK activity).
Setting [9] is: planktonic, cutoff for positive-scoring molecules 3-fold increase, read-out: AK-based Prestwick Library Screening Results, E. coli (fold increase in extracellular AK activity).
Where [10] appears, read: planktonic, cutoff for positive-scoring molecules 3-fold increase, read-out: AK-based Prestwick Library Screening Results, E. cloacae (fold increase in extracellular AK activity).
[11] abbreviates: planktonic, cutoff for positive-scoring molecules 3-fold increase, read-out: AK-based Prestwick Library Screening Results, P. aeruginosa (fold increase in extracellular AK activity).
[12] abbreviates: planktonic, cutoff for positive-scoring molecules 3-fold increase, read-out: AK-based Prestwick Library Screening Results, K. pneumoniae (fold increase in extracellular AK activity).
The mark [13] stands for this setting: planktonic, cutoff for positive-scoring molecules 3-fold increase, read-out: AK-based Prestwick Library Screening Results, A. baumannii (fold increase in extracellular AK activity).
Setting [14] is: planktonic, cutoff for positive-scoring molecules 3-fold increase, read-out: AK-based Prestwick Library Screening Results, E. faecium (fold increase in extracellular AK activity).

Structures can show the parent of a compound that is named as a salt. Where two headings read alike, the source gives them in different places.

`NCCC(=O)NCCc1c[nH]cn1` [Carcinine]: the fold induction at 50 µM in experiment [1] (planktonic S. aureus, […], read-out: AK-based Prestwick Library Screening Results, S. aureus (increase in extracellular AK activity)) was 0.7; in experiment [2] (planktonic E. coli, […], read-out: AK-based Prestwick Library Screening Results, E. coli (increase in extracellular AK activity)) it was 0.8; in experiment [3] (planktonic E. cloacae, […], read-out: AK-based Prestwick Library Screening Results, E. cloacae (increase in extracellular AK activity)), 0.8; in experiment [4] (planktonic P. aeruginosa, […], read-out: AK-based Prestwick Library Screening Results, P. aeruginosa (increase in extracellular AK activity)), 0.8; in experiment [5] (planktonic K. pneumoniae, […], read-out: AK-based Prestwick Library Screening Results, K. pneumoniae (increase in extracellular AK activity)), 0.6; in experiment [6] (planktonic A. baumannii, […], read-out: AK-based Prestwick Library Screening Results, A. baumannii (increase in extracellular AK activity)), 0.8. Further, the fold induction at 50 µM in experiment [7] (planktonic E. faecium, […], read-out: AK-based Prestwick Library Screening Results, E. faecium (increase in extracellular AK activity)) came out at 0.9.
`CO[C@@]1(NC(=O)C(C(=O)O)c2ccc(O)cc2)C(=O)N2C(C(=O)O)=C(CSc3nnnn3C)CO[C@@H]21` (some centres unmarked) [Moxalactam disodium salt]: the fold induction at 50 µM in experiment [1] (setting [8]) came out at 4.4; in experiment [2] (setting [9]), 18.1; in experiment [3] (setting [10]) it was 0.8; in experiment [4] (setting [11]), 0.6; in experiment [5] (setting [12]), 3.9; in experiment [6] (setting [13]) it was 0.6. In experiment [7] (setting [14]), the fold induction at 50 µM is 1.3.
On to `CN(C)CCOC(=O)COc1ccc(Cl)cc1` [Meclofenoxate hydrochloride], for which the fold induction at 50 µM came out at 1.2 in experiment [1] (planktonic, […], read-out: AK-based Prestwick Library Screening Results, S. aureus (fold increase in extracellular AK activity)); 1.2 in experiment [2] (planktonic, […], read-out: AK-based Prestwick Library Screening Results, E. coli (fold increase in extracellular AK activity)); 1.4 in experiment [3] (planktonic, […], read-out: AK-based Prestwick Library Screening Results, E. cloacae (fold increase in extracellular AK activity)); 1.1 in experiment [4] (planktonic, […], read-out: AK-based Prestwick Library Screening Results, P. aeruginosa (fold increase in extracellular AK activity)); 1 in experiment [5] (planktonic, […], read-out: AK-based Prestwick Library Screening Results, K. pneumoniae (fold increase in extracellular AK activity)); 1 in experiment [6] (planktonic, […], read-out: AK-based Prestwick Library Screening Results, A. baumannii (fold increase in extracellular AK activity)). Besides, the fold induction at 50 µM in experiment [7] (planktonic, […], read-out: AK-based Prestwick Library Screening Results, E. faecium (fold increase in extracellular AK activity)) was 1.
For the compound `CC1=C2[C@H]3OC(=O)[C@@H](C)[C@@H]3CC[C@@]2(C)C=CC1=O` [alpha-Santonin], the fold induction at 50 µM in experiment [1] (planktonic S. aureus, […], read-out: AK-based Prestwick library screening result, S. aureus (fold increase in extracellular AK activity)) is 0.9; in experiment [2] (planktonic E. coli, […], read-out: AK-based Prestwick library screening result, E. coli (fold increase in extracellular AK activity)), 0.8; in experiment [3] (planktonic E. cloacae, […], read-out: AK-based Prestwick library screening result, E. cloacae (fold increase in extracellular AK activity)), 0.9; in experiment [4] (planktonic P. aeruginosa, […], read-out: AK-based Prestwick library screening result, P. aeruginosa (fold increase in extracellular AK activity)), 0.9; in experiment [5] (planktonic K. pneumoniae, […], read-out: AK-based Prestwick library screening result, K. pneumoniae (fold increase in extracellular AK activity)), 0.7; in experiment [6] (planktonic A. baumannii, […], read-out: AK-based Prestwick library screening result, A. baumannii (fold increase in extracellular AK activity)), 0.8. Further, in experiment [7] (planktonic E. faecium, […], read-out: AK-based Prestwick library screening result, E. faecium (fold increase in extracellular AK activity)), the fold induction at 50 µM was determined as 1.
Consider `CCCOc1ccc(C(=O)OCCN(CC)CC)cc1N` [Proparacaine hydrochloride], for which the fold induction at 50 µM in experiment [1] (cutoff for positive-scoring molecules 3-fold increase, read-out: AK-based Prestwick Library Screening Results, S. aureus (fold increase in extracellular AK activity)) amounted to 1.2; in experiment [2] (cutoff for positive-scoring molecules 3-fold increase, read-out: AK-based Prestwick Library Screening Results, E. coli (fold increase in extracellular AK activity)), 1.3; in experiment [3] (cutoff for positive-scoring molecules 3-fold increase, read-out: AK-based Prestwick Library Screening Results, E. cloacae (fold increase in extracellular AK activity)) it was 1.2; in experiment [4] (cutoff for positive-scoring molecules 3-fold increase, read-out: AK-based Prestwick Library Screening Results, P. aeruginosa (fold increase in extracellular AK activity)) it was 1.1; in experiment [5] (cutoff for positive-scoring molecules 3-fold increase, read-out: AK-based Prestwick Library Screening Results, K. pneumoniae (fold increase in extracellular AK activity)), 1.1; in experiment [6] (cutoff for positive-scoring molecules 3-fold increase, read-out: AK-based Prestwick Library Screening Results, A. baumannii (fold increase in extracellular AK activity)), 1.4. Besides, in experiment [7] (cutoff for positive-scoring molecules 3-fold increase, read-out: AK-based Prestwick Library Screening Results, E. faecium (fold increase in extracellular AK activity)), the fold induction at 50 µM amounted to 1.
In the case of `COc1ccc([C@@H]2CC(=O)c3c(O)cc(O[C@@H]4O[C@H](CO[C@@H]5O[C@@H](C)[C@H](O)[C@@H](O)[C@H]5O)[C@@H](O)[C@H](O)[C@H]4O)cc3O2)cc1O` [Hesperidin], the “AK-based Prestwick Library Screening Results, S. aureus (fold increase in extracellular AK activity)” value in experiment [1] (planktonic, […]) is given as 1.3. Besides, the “AK-based Prestwick Library Screening Results, E. coli (fold increase in extracellular AK activity)” value in experiment [2] (planktonic, […]) came to 1.1. Besides, in experiment [3] (planktonic, […]), the “AK-based Prestwick Library Screening Results, E. cloacae (fold increase in extracellular AK activity)” value stood at 1.4. For the same compound, the “AK-based Prestwick Library Screening Results, P. aeruginosa (fold increase in extracellular AK activity)” value in experiment [4] (planktonic, […]) stood at 1.0. In experiment [5] (planktonic, […]), the “AK-based Prestwick Library Screening Results, K. pneumoniae (fold increase in extracellular AK activity)” value came to 1.0. Moreover, the “AK-based Prestwick Library Screening Results, A. baumannii (fold increase in extracellular AK activity)” value in experiment [6] (planktonic, […]) worked out at 1.2. Further, the “AK-based Prestwick Library Screening Results, E. faecium (fold increase in extracellular AK activity)” value in experiment [7] (planktonic, […]) was 1.1.
For the compound `CC(CN1c2ccccc2Sc2ccccc21)N(C)C` (centres unmarked) [Promethazine hydrochloride], the fold induction at 50 µM came to 0.5 in experiment [1] (setting [8]); 0.6 in experiment [2] (setting [9]); 0.5 in experiment [3] (setting [10]); 0.6 in experiment [4] (setting [11]); 0.5 in experiment [5] (setting [12]); 0.6 in experiment [6] (setting [13]). The fold induction at 50 µM in experiment [7] (setting [14]) was 0.8.
In the case of `CN(C(=O)CN(CCO)CC(=O)N(C)C(C)(C)Cc1ccccc1)C(C)(C)Cc1ccccc1` [Oxethazaine], the fold induction at 50 µM in experiment [1] (planktonic S. aureus, 384-well, cutoff for positive-scoring molecules 3-fold increase, read-out: AK-based Prestwick Library Screening Results: S. aureus (increase in extracellular AK activity)) is 1; in experiment [2] (planktonic E. coli, 384-well, cutoff for positive-scoring molecules 3-fold increase, read-out: AK-based Prestwick Library Screening Results: E. coli (increase in extracellular AK activity)) it was 1.4; in experiment [3] (planktonic E. cloacae, 384-well, cutoff for positive-scoring molecules 3-fold increase, read-out: AK-based Prestwick Library Screening Results: E. cloacae (increase in extracellular AK activity)), 1.5; in experiment [4] (planktonic P. aeruginosa, 384-well, cutoff for positive-scoring molecules 3-fold increase, read-out: AK-based Prestwick Library Screening Results: P. aeruginosa (increase in extracellular AK activity)), 1; in experiment [5] (planktonic K. pneumoniae, 384-well, cutoff for positive-scoring molecules 3-fold increase, read-out: AK-based Prestwick Library Screening Results: K. pneumoniae (increase in extracellular AK activity)), 1.5; in experiment [6] (planktonic A. baumannii, 384-well, cutoff for positive-scoring molecules 3-fold increase, read-out: AK-based Prestwick Library Screening Results: A. baumannii (increase in extracellular AK activity)) it was 4.2. For the same compound, the fold induction at 50 µM in experiment [7] (planktonic E. faecium, 384-well, cutoff for positive-scoring molecules 3-fold increase, read-out: AK-based Prestwick Library Screening Results: E. faecium (increase in extracellular AK activity)) is 1.
